Measurements as given in US20030104393A1, “Blood assessment of injury” (priority 2000, published 2003).

Test system: blood cells
Test: Blood pattern of gene expression in epileptic individuals treated with anticonvulsant valporate or carbamazepine (Affymetrix U95A, SAM)
Assay type: in vivo, human
Details: for Upregulated genes for Carbamazepine: blood of epileptic individuals treated with carbamazepine vs epileptic individuals taking no anticonvulsant, value = Genbank accession of the upregulated gene; for Pattern of expression in blood for each drug: epileptic individuals treated with anticonvulsant vs epileptic individuals taking no anticonvulsant, FIG. 5
Description: FIG. 5 is a cluster analysis of the expression obtained from pediatric epilepsy patients prior to being treated compared to the expression of these individuals after being treated with anticonvulsant valporate (VPA) or the anticonvulsant carbamazepine (CPZ), as described in the Example 8;
To study the gene expression in Parkinson's patients, blood from over 30 patients is collected from healthy controls as well as from patients with a variety of disorders, including idiopathic Parkinson's patients with bradykinesia, rigidity and the characteristic tremor without dementia or evidence of any other neurological findings; progressive supranuclear palsy, bipolar disorder, schizophrenia, epilepsy, and Tourettes. A commercially available kit (Qiagen) is used to the blood cells from the whole blood samples, and total RNA isolated from the white blood cells. Two thirds of the RNA is used on DNA microarrays, and one third is used for PCR confirmation of the genes that are changed. After the purity of the RNA is checked ([…]), cDNA is synthesized from the total RNA and used to make biotin labeled cRNA. The cRNA is then applied to Affymetrix chips, human U95A chips that can screen for the expression of over 13,000 human genes including 11,000 known genes and 2,000 ESTs, and processed and scanned according to manufacturer's instructions. The chips are scanned twice for each patient sample. Genes that are expressed over two-fold compared to normals are plotted on figures. These genes are confirmed using standard techniques including PCR, Northern blotting or Western blotting. A separate statistical analysis is also applied to the data. […] Once this analysis is performed, the data is used to perform a class prediction analysis. […] The expression value of the genes is shown on the Y axis and the individual patients are plotted on the X-axis.
Blood is obtained from epileptic individuals, epileptic individuals being treated with anticonvulsant valporate and epileptic individuals being treated with anticonvulsant carbamazepine. A pattern of expression is captured and analyzed for each injury state as described in Example 4.

| SMILES | Upregulated genes for Carbamazepine (gene AA883870: am26f01.s1 Homo sapiens cDNA, 3 end) | Upregulated genes for Carbamazepine (gene AB000824: Homo sapiens mRNA for trehalase, complete cds) | Pattern of expression in blood for each drug |
| --- | --- | --- | --- |
| NC(=O)N1c2ccccc2C=Cc2ccccc21 [Carbamazepine, carbamazepine] | AA883870 | AB000824 | different from each other and different from the controls |
| CCCC(CCC)C(=O)O [Valporate, valporate] | – | – | different from each other and different from the controls |
